“Also recorded” adds a separate entry of the source.
What was measured:
Format in all cases: physicochemical
[1] = Slurry experiment in water (stirred 3 days at room temperature, XRD); conditions: stirred in water at room temperature for 3 days, by XRD
Procedure: (§1) Instruments and characterization methods: • X-ray powder diffraction (XRPD): performed on Bruder D8 Advance diffractometer. The samples were tested at room temperature under the following conditions: scan range 3-40° 2θ, step size 0.02° 2θ, and speed 0.2 s/step.

[2] = Phase and chemical stability experiments (10 days storage, XRD and purity); conditions: for Form (10 days test results): by XRD; for crystalline form after storage / purity change after storage: 10 days at 60° C. dry condition and 40° C./75% RH condition
Procedure: as §1

[3] = Dynamic vapor sorption / isothermal sorption
Procedure: Dynamic vapor sorption data and isothermal sorption data were collected on TA Instruments Q5000 TGA. Method: place 1 mg to 10 mg sample into a platinum pan; the weight change of the sample during the change in relative humidity from 0% to 80% to 0% was measured.

Cn1cncc1[C@@](N)(c1ccc(Cl)cc1)c1ccc2c(c1)c(-c1cccc(Cl)c1)cc(=O)n2C [Form A, (R)-6-(amino(4-chlorophenyl)(1-methyl-1H-imidazol-5-yl)methyl)-4-(3-chlorophenyl)-1-methyl-2(1H)-quinolinone, reference compound]
Test results: crystalline form after stirring in water [1]: transformed to tipifanib Form I | Test results: crystalline form after stirring in water ([1]; listed as Tipifarnib Form A): Tipifarnib Form I

Cn1cncc1[C@@](N)(c1ccc(Cl)cc1)c1ccc2c(c1)c(-c1cccc(Cl)c1)cc(=O)n2C [Form III, (R)-6-(amino(4-chlorophenyl)(1-methyl-1H-imidazol-5-yl)methyl)-4-(3-chlorophenyl)-1-methyl-2(1H)-quinolinone]
Test results: crystalline form after stirring in water [1]: remained unchanged | Test results: crystalline form after stirring in water ([1]; listed as Tipifarnib Form III): Tipifarnib Form III | Purity (%) (10 days test results) ([2]; 40° C./75% RH): 99.80% | Form (10 days test results) ([2]; 40° C./75% RH): Tipifarnib Form III | Purity (%) (10 days test results) ([2]; 60° C./drying): 99.80% | Form (10 days test results) ([2]; 60° C./drying): Tipifarnib Form III | crystalline form after storage [2]: remained their original forms; also recorded: remained its original form | purity change after storage [2]: essentially did not decrease; also recorded: essentially did not change

Cn1cncc1[C@@](N)(c1ccc(Cl)cc1)c1ccc2c(c1)c(-c1cccc(Cl)c1)cc(=O)n2C [Form II, (R)-6-(amino(4-chlorophenyl)(1-methyl-1H-imidazol-5-yl)methyl)-4-(3-chlorophenyl)-1-methyl-2(1H)-quinolinone]
Test results: crystalline form after stirring in water [1]: remained unchanged | Test results: crystalline form after stirring in water ([1]; listed as Tipifarnib Form II): Tipifarnib Form II | Purity (%) (10 days test results) ([2]; 40° C./75% RH): 99.86% | Form (10 days test results) ([2]; 40° C./75% RH): Tipifarnib Form II | Purity (%) (10 days test results) ([2]; 60° C./drying): 99.84% | Form (10 days test results) ([2]; 60° C./drying): Tipifarnib Form II | crystalline form after storage [2]: remained their original forms; also recorded: remained its original form | purity change after storage [2]: essentially did not decrease; also recorded: essentially did not change

Cn1cncc1[C@@](N)(c1ccc(Cl)cc1)c1ccc2c(c1)c(-c1cccc(Cl)c1)cc(=O)n2C [Form IV, (R)-6-(amino(4-chlorophenyl)(1-methyl-1H-imidazol-5-yl)methyl)-4-(3-chlorophenyl)-1-methyl-2(1H)-quinolinone]
Test results: crystalline form after stirring in water [1]: remained unchanged | Test results: crystalline form after stirring in water ([1]; listed as Tipifarnib Form IV): Tipifarnib Form IV | Purity (%) (10 days test results) ([2]; 40° C./75% RH): 99.73% | Form (10 days test results) ([2]; 40° C./75% RH): Tipifarnib Form IV | Purity (%) (10 days test results) ([2]; 60° C./drying): 99.85% | Form (10 days test results) ([2]; 60° C./drying): Tipifarnib Form IV | crystalline form after storage [2]: remained their original forms; also recorded: remained its original form | purity change after storage [2]: essentially did not decrease; also recorded: essentially did not change

Cn1cncc1[C@@](N)(c1ccc(Cl)cc1)c1ccc2c(c1)c(-c1cccc(Cl)c1)cc(=O)n2C [Form I, (R)-6-(amino(4-chlorophenyl)(1-methyl-1H-imidazol-5-yl)methyl)-4-(3-chlorophenyl)-1-methyl-2(1H)-quinolinone]
Test results: crystalline form after stirring in water [1]: remain unchanged | Test results: crystalline form after stirring in water ([1]; listed as Tipifamib Form I): Tipifamib Form I | weight change (isothermal sorption plot) ([3]; between 20 to 80% RH): less than 0.2% | hygroscopicity ([3]; isothermal sorption plot, 20 to 80% RH): not hygroscopic | Purity (%) (10 days test results) ([2]; 40° C./75% RH): 99.61% | Form (10 days test results) ([2]; 40° C./75% RH): Tipifarnib Form I | Purity (%) (10 days test results) ([2]; 60° C./drying): 99.72% | Form (10 days test results) ([2]; 60° C./drying): Tipifarnib Form I | crystalline form after storage [2]: remained its original form; also recorded: remained their original forms | purity change after storage [2]: essentially did not change; also recorded: essentially did not decrease
